Laboratory results taken from patent US20240172757A1, “METHOD OF […] A […] CROP” (priority 2021, published 2024).

Columns and labels:
soybean plant crop [1] = experiment: Field test runs: acceleration of senescence/maturation and time to harvest of soybean crop after spraying at a reproductive growth stage; format: in vivo
Source text: The solution of 2-chloroethylphosphonic acid may be prepared by mixing together 2-chloroethylphosphonic acid (known as ethephon in liquid form and obtainable from a number of sources) with a water solution or a liquid medium that is non-toxic to the particular legume desired. Most commercial sprayers are suitable for preparation and/or application of the solution described herein. To prepare the mixture, during test runs, a tank comprising a capacity of 600 gallons and an agitator was used. Continuous agitation of the mixture during preparation seems to provide best results.
In some embodiments, the 2-chloroethylphosphonic acid solution may comprise a water-soluble urea comprising approximately 46% nitrogen. A dry form of nitrogen may be part of the water solution or it may be part of the 2-chloroethylphosphonic acid solution with suitable mixing. Mixing is performed continuously in certain embodiments. During some test runs, approximately 4 pounds of urea per acre was added to about 10 gallons (83.4 pounds) of water per acre, followed by approximately 1.5 pounds of 2-chloroethylphosphonic acid per acre. In some embodiments, the 2-chloroethylphosphonic acid may also comprise a spreader-sticker. The spreader-sticker may be added, for example, at a rate of 2 ounces (0.125 pounds) per acre and may be silicone-based. A suitable silicone-based spreader-sticker, for example, is Kinetic by Helena. Other non-silicone-based sticker-spreaders may also be used.
Application of the 2-chloroethylphosphonic acid solution should be performed when the leguminous plant crop comprises at least 50% of the planted crops in the field at a seed growth stage. In some embodiments, the leguminous plant may be at an R5 growth stage when application of the solution described herein is performed. During R5, a fully developed seed pod may comprise, for example, a match-head sized seed in the pod. In some embodiments, the leguminous plant may be at growth stage R5.5, or between R5 and R6 for application. In some embodiments, application is performed when at least 50% of the planted leguminous plant crop is at an R6 reproductive growth stage, as described above. For example, R6 may be visually characterized or identified when at least 50% of the leguminous plant crop comprises at least one seed or “green bean” (in a top pod of the plant) comprising a width equal to its pod cavity. In some embodiments, the leguminous plant may be at growth stage R6.5, or at or between R6 and R7. During some test runs, senescence was achieved within 5 days after application of the solution described herein, with successful harvesting of quality crop. By way of example, prior to application, the physiological stage of the leguminous plant may be determined by inspecting the terminal (or last growing point at the top) end of the leguminous plant crop for a seed pod. Triggering maturation at the R5 growth stage may produce smaller seeds. For commercial production, triggering at R6 may be most successful to obtain more seed at a greater weight.
Application of the solution described herein may perform best at temperatures below 98° F. In some embodiments, application of the solution is performed at a temperature below about 90° F. Successful test runs, by way of example, described below were performed at 88° F.
During trial runs, soybean plant crops were planted on plot sizes ranging from 25-150 acres. Soybean plant crops were planted on soil used for rotational crops including, for example, grass crop, corn crop, or grain crop. Crops were seeded approximately 1-1.5 inches deep with a twin line planter. No other pretreatments were performed on the soil during test runs. Ground application was performed on raised beds using a flow jet capable of delivering a minimum of 10-20 gallons per acre. Raised beds were used during some test runs. Furrow irrigation was used to water the soybean plant crop, applying water to the top end of each furrow. […]

soybean plant crop [2] = experiment: Composition, yield and seed quality analysis of harvested soybeans after spraying at R6; format: in vivo
Experimental: During trial applications of the solutions described herein, composition, yield and seed quality was analyzed. It was discovered that even under challenges such as hotter than normal temperatures and drought conditions, the solutions described herein allow for manipulation of the seasons for advantageous harvesting of high quality soybeans. Soybean crop (variety “Linda,” a group 5.6 determinate soybean) was planted in 8-24 row strips following a fall corn crop. Herbicide was applied at 3 pints/acre and crop was fertilized with 20 gallons of 32-0-0 per acre, followed by irrigation as needed. Soil maps indicated two different soil types (Harlingen clay and Olmito clay) in the field that bisected the field, with the second replication having slightly less Olmito clay in the treated area. As they are both components of the other, the field was consistent to visual observation. […] The growth stage of the beans at this point is still very rapid but the dry weight and nutrient accumulation begins to slow in the whole plant by R6.5 which is just 7-10 days later in many cases. Another indicator of the R6 stage is visual signs of senescence in the older leaves of the plants.
Sprayer comprising the 2-chloroethylphosphonic acid solution was prepared and applied as described above at the following rates of Table. 1. Weather conditions at the time of spraying can be found in Table 2.
The sprayed crops were monitored daily to observe phenotypic changes which included leaf color, leaf drop, pod desiccation, and any visual between treatments. After two days post-spraying, photographs were taken to show the changes in color due to senescense taking place.
Harvest was slightly delayed (about 3 days) due to unavailability of the combine, however, even with this delay, harvested crops were sent for composition and seed quality parameters. The actual harvest during these test runs was well below a soybean moisture content of a market standard 13%.
The 0.75 pounds of the 2-chloroethylphosphonic acid solution per acre rate was highest in crude fat, crude protein, digestible energy and total digestible nutrients (TDN) while being lowest in crude fiber. […] FIGS. 1 through 4 illustrate major nutritional components affected by treatment rate, where the term “a.i.” is meant to refer to the 2-chloroethylphosphonic acid solution described above. FIG. 1 is a graph of crude protein affected by treatment rate of 2-chloroethylphosphonic acid solution according to an embodiment. FIG. 2 is a graph of crude fat affected by treatment rate of 2-chloroethylphosphonic acid solution according to an embodiment. FIG. 3 is a graph of crude fiber affected by treatment rate of 2-chloroethylphosphonic acid solution according to an embodiment. FIG. 4 is a graph of total digestible nutrients affected by treatment rate of 2-chloroethylphosphonic acid solution according to an embodiment.

In the case of `O=P(O)(O)CCCl` [2-chloroethylphosphonic acid], the “acceleration of maturation in soybean plants” value (soybean plant crop [1]; about 0.375 pounds per acre at the R-6 stage) was “significant acceleration of maturation”, the “accelerated maturation of a soybean plant” value (soybean plant crop [1]; about 0.75 pounds per acre at the R-6 reproductive growth stage) was “Accelerated maturation” and the “harvesting stage reached sooner than without spraying” value (soybean plant crop [1]; following application at a reproductive growth stage) was 10 to 14 days. The “maturation achieved faster than when not treated” value (soybean plant crop [1]; in some cases, high temperature and high humidity environments) was “up to 40 days”, the “days shaved off waiting times” value (soybean plant crop [1]; in some cases, versus typical minimum 39-day period) was “about 30 days” and the “time to senescence after application” value (soybean plant crop [1]; some test runs) was ≤ 5 days. The germination rate (soybean plant crop [1]; trial runs, 25-150 acre plots) was ≥ 90%, the “total digestible nutrients (TDN) (rank among treatments)” value (soybean plant crop [2]; 0.375 pounds per acre, R6) was “Ranked behind that in TDN” and the “crude fat (rank among treatments)” value (soybean plant crop [2]; 0.75 pounds per acre, R6) was “highest”. For the same compound, the “crude fiber (rank among treatments)” value (soybean plant crop [2]; 0.75 pounds per acre, R6) was “lowest”, the “crude protein (rank among treatments)” value (soybean plant crop [2]; 0.75 pounds per acre, R6) was “highest” and the “digestible energy (rank among treatments)” value (soybean plant crop [2]; 0.75 pounds per acre, R6) was “highest”. For the same compound, the “total digestible nutrients (TDN) (rank among treatments)” value (soybean plant crop [2]; 0.75 pounds per acre, R6) was “highest” and the “overall nutrients versus untreated” value (soybean plant crop [2]; all three treatments (0.375, 0.75, 1.125 pounds per acre)) was “improved overall nutrients”.
